Reference: US20240400547A1, “2,6-PIPERIDINEDIONE COMPOUND AND APPLICATION THEREOF” (MEDSHINE DISCOVERY INC., priority 2021, published 2024)
Structures can show the parent of a compound that is named as a salt.

Experiments:
TMD-8 = test: Antiproliferative effect in lymphoma cell line TMD-8 (CellTiter-Glo); assay type: cell-based; conditions: TMD-8, 5 days; for IC50: Homo sapiens, TMD8, 120 h
Description: Experimental purpose: The experiment aims to evaluate the inhibitory effects of the test compounds on cell proliferation in the diffuse large B-cell lymphoma (DLBCL) cell lines OCI-LY10 and TMD-8.
(§1) The tumor cell lines were cultured in a 37° C., 5% CO2 incubator under the above culture conditions. Regular passage, and cells in logarithmic growth phase were taken for plating.
(§2) • (1) Cells were stained with trypan blue and viable cells were counted. • (2) The cell concentration was adjusted to an appropriate concentration.
• (3) 100 μL of cell suspension per well was added to the culture plate as shown above. • (4) The culture plate was cultured overnight in a 37° C., 5% CO2 incubator with 100% relative humidity.
Preparation of stock solution storage plate with 1000 times the initial concentration of the compound: The compound was serially diluted with DMSO from the highest concentration to the lowest concentration. The solution was prepared as needed each time.
4. Preparation of 1000× Compound Working Solution and Cell Treatment with Compounds • (1) Preparation of the working solution with 5 times the initial concentration of the compound: For 3-fold dilution of the compound, 30 μL of the compound from a stock solution at 1000-fold concentration was taken, and 20 μL of DMSO was added to the subsequent wells. Then, 10 μL was transferred from one concentration to the next in sequence. For 5-fold dilution of the compound, 30 μL of the compound from a stock solution at 1000-fold concentration was taken, and 24 μL of DMSO was added to the subsequent wells. Then, 6 μL was transferred from one concentration to the next in sequence. 20 μL of DMSO was added to the vehicle control. The 1000-fold concentrated compound was diluted 200 times with culture medium, i.e., 1 μL of the 1000-fold diluted compound is added to 199 μL of culture medium, and the mixture was homogenized using a pipette. • (2) Compound addition: 25 μL of the 5-fold compound solution was added to the cell culture plate. • (3) The 96-well cell plate was returned to the incubator to culture OCI-LY10 (with either 3-fold or 5-fold dilution, incubated with compounds added for 5 days) and TMD-8 (with either 3-fold or 5-fold dilution, incubated with compounds added for 5 days).
(§3) The following steps were performed according to the instructions of Promega CellTiter-Glo luminescent cell viability assay kit (Promega-G7573). • (1) CellTiter-Glo buffer was melted and brought to room temperature. • (2) CellTiter-Glo substrate was brought to room temperature. • (3) CellTiter-Glo working solution was prepared by adding 10 mL of CellTiter-Glo buffer to a vial of CellTiter-Glo substrate to dissolve the substrate. • (4) The mixture was slowly vortexed and shaken to be fully dissolved. • (5) The cell culture plate was taken out and left for 30 minutes to equilibrate to room temperature. • (6) 60 μL of CellTiter-Go working solution was added per well (equal to half the volume of cell culture medium per well). The cell plate was wrapped in aluminum foil to be protected from light. • (7) The culture plate was shaken on an orbital shaker for 2 minutes to induce cell lysis. • (8) The culture plate was left at room temperature for 10 minutes to stabilize the luminescent signal. • (9) The luminescent signal was detected on a 2104 EnVision plate reader.
(§4) The inhibition rate (IIR) of the test compound was calculated using the following formula: IR (%)=(1−RLU compound/RLU vehicle control)*100%. The inhibition rates of compounds at different concentrations were calculated in Excel, and then GraphPad Prism software was used to plot inhibition curves and calculate relevant parameters, including minimum inhibition rate, maximum inhibition rate, and IC50.

SU-DHL-2 = test: Antiproliferative effect in lymphoma cell line SU-DHL-2 (CellTiter-Glo); assay type: cell-based, human; conditions: SU-DHL-2, 4 days; for IC50: Homo sapiens, 96 h
Description: Experimental purpose: The experiment aims to evaluate the inhibitory effects of the test compounds on cell proliferation in the lymphoma cell line SU-DHL-2.
as §1, §2
• (3) 50 μL of cell suspension per well was added to the culture plate as shown in the figure above. • (4) The culture plate was cultured overnight in a 37° C., 5% CO2 incubator with 100% relative humidity.
Compounds were added using the Echo655 instrument. The volume of compound added was 50 nL, with a final DMSO concentration of 0.1%. The culture plate was centrifuged at 1000 rpm for 1 minute, then incubated for 4 days in an incubator at 37° C., 5% CO2, and with 100% relative humidity.
as §3, with “adding” for “adding 10 mL of”, “substrate;” for “substrate.”, “25” for “60”, “CellTiter-Glo” for “CellTiter-Go”
as §4, with “(IR)” for “(IIR)”, “(%)=(1−(RLU” for “(%)=(1−RLU”, “compound/RLU blank control)/(RLU” for “compound/RLU”, “control−RLU blank control)×100%.” for “control)*100%.”

Compound | IC50 (TMD-8) [nM] | Maximum inhibition rate (TMD-8) [%] | IC50 (SU-DHL-2) [nM] | Maximum inhibition rate (SU-DHL-2) [%]
O=C1CCC(c2noc3ccc4c(NC(=O)CN5CCN(C[C@H]6CC[C@H](n7cc(NC(=O)c8coc(-c9ccnc(NCC%10CC%10)c9)n8)c(C(F)F)n7)CC6)CC5)cccc4c23)C(=O)N1 (stereo partly drawn) [Hydrochloride of WX014] | 10.3 | 89.86 | 28.7 | 93.55
O=C1CCC(c2noc3ccc4c(NC(=O)C(F)(F)C5CCN(CC6CCC(n7cc(NC(=O)c8coc(-c9ccnc(NCC%10CC%10)c9)n8)c(C(F)F)n7)CC6)CC5)cccc4c23)C(=O)N1 (stereo not drawn) [Hydrochloride of WX018] | 12.8 | 99.53 | 11.7 | 100.27
CC(C)(O)c1cc2nc([C@H]3CC[C@H](CN4CCN(CC(=O)Nc5ccc6c(C7CCC(=O)NC7=O)noc6c5)CC4)CC3)sc2cc1NC(=O)c1cccc(C(F)(F)F)n1 (stereo partly drawn) [Formate of WX026] | 8.65 | 99.92 | 0.91 | 100.08
O=C1CCC(c2coc3cc(NC(=O)CN4CCN(C[C@H]5CC[C@H](N6CC(NC(=O)c7coc(-c8ccnc(NCC9CC9)c8)n7)C(C(F)F)N6)CC5)CC4)ccc23)C(=O)N1 (stereo partly drawn) [Hydrochloride of WX002] | 92 | 83.31 | – | –
O=C1CCC(c2coc3ccc4c(NC(=O)CN5CCN(C[C@H]6CC[C@H](n7cc(NC(=O)c8coc(-c9ccnc(NCC%10CC%10)c9)n8)c(C(F)F)n7)CC6)CC5)cccc4c23)C(=O)N1 (stereo partly drawn) [Trifluoroacetate of WX011] | 17 | 94.65 | 25.2 | 99.89
